From patent US8048455B2, “Treatment of cancer and inflammatory disorder” (Academia Sinica, priority 2006, dated 2011)

Tested on: human COX-2 promoter
Test: COX-2 promoter-driven luciferase reporter assay in TPA-treated B16 melanoma cells
Type: cell-based, murine
Details: for Suppression of full-length COX-2 promoter activity vs TPA only: TPA 50 ng/mL 6 h
From the text: A double-mutated COX-2 promoter containing mutations on both NF-κB sites was also constructed (FIG. 2). PPGL-3-Basic vector was used as a negative control in luciferase assays. COX-2 reporter activity in arbitrary units (AU) was normalized to that for the Renilla luciferase reporter.
Murine melanoma B-16 cells co-transfected with the full-length pCOX-2-Luc and internal control plasmid pRL-TK-Luc plasmid constructs were stimulated without (control) or with TPA, in the absence or presence of the indicated concentrations of CREa8. An amount of 10 μg of total protein lysate was subjected to dual luciferase reporter assay. The induction fold of COX promoter activity by TPA treatment only is presented as 100%. The statistical analyses between […] and CREa8, aspirin, or indomethacin (Indo.) treatment were performed using Student's t-test.
B-16 cells were co-transfected with the full-length pCOX-2-Luc and internal control Renilla pRL-TK-Luc plasmid constructs with the LIPOFECTAMINE reagent (Invitrogen). The cells were then stimulated with vehicle (0.001% DMSO) or with 50 ng/mL TPA, in the absence or presence of dLGG for 6 hours. Ten μg of total protein lysate prepared with Passive Lysis Buffer (Promega) was subjected to dual luciferase reporter assay. The induction fold of COX-2 promoter activity by TPA treatment only is presented as 100%.
The contribution of specific cis-acting element binding sites on the transcription of COX-2 was examined. Data were obtained from 2 to 3 experiments with 3 to 6 replicates and expressed as mean±SD. Two-way ANOVA was used to analyze significance of differences.

## CC/C=C\C/C=C\C/C=C\CCCCCCCC(=O)OC[C@H](CO[C@@H]1O[C@H](CO)[C@H](O)[C@H](O)[C@H]1O)OC(=O)CCCCCCC/C=C\C/C=C\C/C=C\CC [dLGG, 1,2-di-O-α-linolenoyl-3-O-β-galactopyranosyl-sn-glycerol]
50 μg/mL, B16 cells
  Suppression of full-length COX-2 promoter activity vs TPA only: 20%
100 μg/mL, B16 cells
  TPA-induced luciferase activity of −1334/−1 and −646/−1 promoter constructs (smaller): 65-68%
  Suppression of full-length COX-2 promoter activity vs TPA only: 33%
100 μg/mL, all transfected cells
  TPA-activated increases in luciferase activity, truncated promoter constructs: able to fully inhibit
B16 cells
  TPA-induced COX-2 promoter activity in mutant promoter constructs (CRE, NF-IL6, NF-κB): able to suppress
